Test results from publication PMC7037052, “Predicting the Blood-Brain Barrier Permeability of New Drug-Like Compounds via HPLC with Various Stationary Phases” (Molecules, 2020).

Tests used:
[1] = parameters: method as in PMID 16331406; conditions: rats; BB = Cbrain/Cplasma; training set; cited from earlier work
[2] = parameters: method as in PMID 24157086, PMID 25528370; conditions: cited from earlier work
[3] = RP-HPLC retention on IAM.PC.DD2 (immobilized artificial membrane) column, buffer pH 7.4-acetonitrile; format: physicochemical; conditions: for log kw, IAM: extrapolated to buffer pH 7.4 as mobile phase, 25 °C; for s IAM: slope of Soczewiński-Wachtmeister equation, acetonitrile φ 0.2–0.5
Experimental: (§1) Retention parameters reported as the log k values were calculated by the expression:(1) logk=log(tR−t0)/t0 where tR and t0 are the retention times of the solute and a non-retained compound (citric acid), respectively. They were used to calculate the log kw values, i.e., logarithms of retention parameter in the buffer as the mobile phase. For this purpose the Soczewiński-Wachtmeister’s equation was used:log k = log kw − sφ(2) where φ is the volume fraction of organic modifier in the mobile phase; k and kw are retention parameters corresponding to mixed effluent and buffer as the mobile phase, respectively. The slope s is characteristic of a given solute and chromatographic system. Strong linear relationships between log k and φ values were found for all the compounds in the range of effluent composition examined (R^2 > 0.9). The log kw values determined for the ODS (log kw, ODS), IAM (log kw, IAM) and Cholester (log kw, Cholester) columns were intercorrelated and the following linear relationships with a very good statistical quality were obtained:log kw, ODS = 0.691(± 0.094) + 0.982(± 0.044) log kw, IAM(3) SD = 0.257; R^2 = 0.8880; N = 65 log kw, ODS = 0.911(± 0.062) + 0.765(± 0.025) log kw, Cholester(4) SD = 0.192; R^2 = 0.9371; N = 65 log kw, IAM = 0.356(± 0.073) + 0.721(± 0.029) log kw, Cholester(5) SD = 0.224; R^2 = 0.9068; N = 65
(§2) Shimadzu Vp (Shimadzu, Izabelin, Poland) liquid chromatographic system equipped with LC 10AT pump, SPD 10A UV-Vis detector, SCL 10A system controller, CTO-10 AS chromatographic oven and Rheodyne injector valve with a 20 µL loop was applied in HPLC measurements. Three stationary phases were employed: • Purosphere RP-18e (ODS), 125 × 4 mm i.d., 5 µm (Merck); • IAM.PC.DD2 100 × 4.6 mm i.d., 10 µm (Regis Chemicals Company, Morton Grove, IL, USA); • Cosmosil Cholester, 75 × 2 mm i.d., 2.5 µm (Genore, Warsaw, Poland).
(§3) As mobile phases buffer-acetonitrile mixtures were used. The buffer was prepared from 0.01 mol L^−1 solutions of Na2HPO4 and citric acid and the pH 7.4 value was fixed before mixing with organic modifier. With the ODS column acetonitrile concentration in the effluent, expressed as a volume fraction (φ, v/v), was changed in the range 0.3–0.6, with the constant step of 0.1. The flow rate was 1 mL min^−1. With the IAM column acetonitrile concentration was changed in the range 0.2–0.5, also with the constant step of 0.1 and the flow rate was 1.3 mL min^−1. With the Cosmosil Cholester column acetonitrile concentration was changed in the range 0.4–0.6, with the constant step of 0.05 and the flow rate was 0.4 mL min^−1. Samples of test compounds were dissolved in acetonitrile—c.a. 0.005 mg mL^−1. […] They were detected under UV light at 210 and 254 nm. All measurements were carried out at 25 °C. The dead time values were measured from non-retained compound (citric acid) peaks. All reported log kw values are the average of at least three independent measurements. The extrapolated retention coefficients (logs kw) achieved by HPLC on ODS, IAM and Cholester stationary phases were used for modelling the log BB permeation of 65 drug-like compounds employed as a whole test set (Table 1).

[4] = RP-HPLC retention on Cosmosil Cholester column, buffer pH 7.4-acetonitrile; format: physicochemical; conditions: for log kw, Cholester: extrapolated to buffer pH 7.4 as mobile phase, 25 °C; for s Cholester: slope of Soczewiński-Wachtmeister equation, acetonitrile φ 0.4–0.6
Experimental: as §1, §2, §3

[5] = RP-HPLC retention on Purosphere RP-18e (ODS) column, buffer pH 7.4-acetonitrile; format: physicochemical; conditions: for log kw, ODS: extrapolated to buffer pH 7.4 as mobile phase, 25 °C; for s ODS: slope of Soczewiński-Wachtmeister equation, acetonitrile φ 0.3–0.6
Experimental: as §1, §2, §3

normal Vero cells = tested on: normal Vero cells; parameters: method as in PMID 30807815; conditions: cited from earlier work
human cancer cells = tested on: human cancer cells; parameters: method as in doi:10.1016/j.arabjc.2016.12.024, PMID 24126095; conditions: cited from earlier work
normal cells = tested on: normal cells; parameters: method as in doi:10.1016/j.arabjc.2016.12.024, PMID 24126095; conditions: cited from earlier work
[6] = tested on: Herpes simplex virus type 1; parameters: method as in PMID 30807815; conditions: cited from earlier work
erythrocytes = tested on: erythrocytes; parameters: method as in PMID 30807815; conditions: cited from earlier work

| SMILES | log BBexp. [1] | log kw, IAM [3] | s IAM [3] | log kw, Cholester [4] | s Cholester [4] | log kw, ODS [5] | s ODS [5] | antiproliferative activities in human cancer cells (human cancer cells) | toxic effects for normal cells (normal cells) | further results |
| --- | --- | --- | --- | --- | --- | --- | --- | --- | --- | --- |
| COc1ccc2nc([S+]([O-])Cc3ncc(C)c(OC)c3C)[nH]c2c1 (stereo not shown) [Compound 73590-58-6] | −0.82 |  |  |  |  |  |  |  |  |  |
| Brc1cccc(Br)c1NC1=NCCN1 [Compound 4205-93-0] | 0.33 |  |  |  |  |  |  |  |  |  |
| NC(N)=Nc1nc(-c2ccccc2)cs1 [Compound 2507-81-5] | −0.18 |  |  |  |  |  |  |  |  |  |
| CN1CCC[C@H]1c1cccnc1 [Compound 54-11-5] | 0.56 |  |  |  |  |  |  |  |  |  |
| CCOc1ccc(N2CCn3c2nnc(Cc2ccccc2)c3=O)cc1 [Compound 51] |  | 2.11 | 4.51 | 2.68 | 4.55 | 3.28 | 5.61 |  |  | antinociceptive effect in mice [2]: strongest antinociceptive effect |
| CN1Cc2c(C(=O)OC(C)(C)C)ncn2-c2ccsc2C1=O [Compound 99632-94-7] | −0.25 |  |  |  |  |  |  |  |  |  |
| CCc1nnc2n(c1=O)CCN2c1ccc(Cl)c(Cl)c1 [Compound 6] |  | 1.85 | 4.11 | 2.05 | 3.61 | 2.53 | 4.49 | significant antiproliferative activities | less toxic effects | toxicity to normal Vero cells (normal Vero cells): low toxicity; potency against Herpes simplex virus type 1 [6]: remarkable concentration-dependent potency; oxidatively-induced haemolysis of erythrocytes (erythrocytes): inhibiting the oxidatively-induced haemolysis |
| Brc1cc(Br)c(NC2=NCCN2)c(Br)c1 [Compound 38941-33-2] | 0.58 |  |  |  |  |  |  |  |  |  |
| Clc1ccc(NC2=NCCN2)c(Cl)c1 [Compound 23830-88-8] | 0.16 |  |  |  |  |  |  |  |  |  |
| Clc1cccc(Cl)c1NC1=NCCN1 [Compound 4205-90-7] | 0.19 |  |  |  |  |  |  |  |  |  |
| c1cncc([C@@H]2CCCN2)c1 [Compound 494-97-3] | 0.32 |  |  |  |  |  |  |  |  |  |
| O=c1c(CCc2ccccc2)nnc2n1CCN2c1ccc(Cl)cc1 [Compound 64] |  | 2.68 | 5.44 | 3.22 | 5.12 | 3.56 | 5.81 | significant antiproliferative activities | less toxic effects |  |
| Cc1cccc(N2CCn3c2nnc(-c2ccco2)c3=O)c1C [Compound 21] |  | 1.42 | 3.51 | 1.66 | 3.33 | 2.26 | 4.20 | significant antiproliferative activities | less toxic effects |  |
| COC(=O)Cc1nnc2n(c1=O)CCN2c1ccc(C)cc1 [Compound 8] |  | 1.33 | 3.33 | 1.29 | 2.75 | 1.90 | 3.82 |  |  | antinociceptive effect in mice [2]: strongest antinociceptive effect |
| CCOC(=O)Cc1nnc2n(c1=O)CCN2c1cccc(Cl)c1 [Compound 15] |  | 2.05 | 4.45 | 2.41 | 4.15 | 2.85 | 4.90 | significant antiproliferative activities | less toxic effects |  |
| Cc1ccccc1N1CCn2c1nnc(-c1ccco1)c2=O [Compound 19] |  | 0.96 | 2.72 | 1.20 | 2.78 | 1.74 | 3.48 | significant antiproliferative activities | less toxic effects |  |
| O=c1c(-c2ccco2)nnc2n1CCN2c1c(Cl)cccc1Cl [Compound 28] |  | 1.70 | 3.90 | 2.05 | 3.66 | 2.53 | 4.45 | significant antiproliferative activities | less toxic effects |  |
| CC(C)(C)OC(=O)c1ncn2c1[C@@H]1CCCN1C(=O)c1c(Br)cccc1-2 [Compound 84379-13-5] | −0.09 |  |  |  |  |  |  |  |  |  |
| O=c1c(Cc2ccccc2Cl)nnc2n1CCN2c1ccccc1 [Compound 42] |  | 2.34 | 4.78 | 2.83 | 4.71 | 3.28 | 5.10 |  |  | antinociceptive effect in mice [2]: strongest antinociceptive effect |
| CN1C(=O)CC[C@H]1c1cccnc1 [Compound 486-56-6] | 0.04 |  |  |  |  |  |  |  |  |  |
| Cc1ncc2n1-c1ccc(Cl)cc1C(c1ccccc1F)=NC2 [Compound 59467-70-8] | 0.32 |  |  |  |  |  |  |  |  |  |
| CCc1nnc2n(c1=O)CCN2c1ccc(C)cc1 [Compound 2] |  | 1.00 | 2.88 | 0.57 | 1.84 | 1.30 | 3.12 | significant antiproliferative activities | less toxic effects |  |
| CCc1nnc2n(c1=O)CCN2c1cccc(Cl)c1 [Compound 4] |  | 0.84 | 2.60 | 0.62 | 1.82 | 1.33 | 3.15 | significant antiproliferative activities | less toxic effects |  |
